Converted amounts (≈) assume the structure as drawn. Where two headings read alike, the source gives them in different places.
Experiments:
[1] = system: C. albicans ATCC 10231; assay: MIC; type: cell-based; conditions: Candida albicans, ATCC10231
[2] = system: C. glulliermendi; assay: MIC; type: cell-based
[3] = system: C. albicans OY 003; assay: MIC; type: cell-based, Candida albicans
[4] = system: C. albicans OY 019; assay: MIC; type: cell-based, Candida albicans
[5] = system: C. albicans IFO 1385; assay: MIC; type: cell-based, Candida albicans
[6] = system: C. glabrata; assay: MIC; type: cell-based; conditions: Nakaseomyces glabratus
[7] = system: C. albicans ATCC 28838; assay: MIC; type: cell-based, Candida albicans
[8] = system: C. krusei; assay: MIC; type: cell-based; conditions: Pichia kudriavzevii
[9] = system: C. albicans ATCC 11651; assay: MIC; type: cell-based, Candida albicans
[10] = system: E. floccosum; assay: MIC; type: cell-based, Epidermophyton floccosum
[11] = system: C. parapsilosis; assay: MIC; type: cell-based; conditions: Lodderomyces parapsilosis
[12] = system: C. albicans U.K.; assay: MIC; type: cell-based; conditions: Candida albicans
[13] = system: C. albicans KCTC 1940; assay: MIC; type: cell-based, Candida albicans
[14] = system: Epidermophyton floccosum; assay: Antifungal efficacy of creamy formulation against local fungal skin infection; type: in vivo, mouse (SKH/1, hairless, male); conditions: 0.5% cream, topical
Description: Specific pathogen free SKH/1 male mouse(Hairless) of which weight is 30-35 g and age is 5 weeks, was reared with sterilized water and feed for 12 night/day in the condition of 21-23° C. and of 50% relative humidity. Five mice were allocated by each group. After skin infection, each mouse was taken in separate cage. The strain of microorganism for infection(Epidermophyton floccosum) was cultivated on a flat medium of SDA(Sabouraud Dextrose Agar) for 5-7 days and after confirmation of macrocomidia, 3 ml of RPMI (Rosewell Park Memorial Institute) 1640 media per each flat medium was added thereto and then scraped well using loop to remove hyphae from media. The floating liquid was suspended briefly and then diluted with RPMI 1640 media to adjust the concentration of hyphae to 2×10^6 CFU/ml. Mouse was anesthetized and marked on back site(lumbosacral area) in a shape of circle of which diameter is 1.5 cm. Then, the inner part of marked skin was scratched with sand paper. The scratched part was covered with a filter paper to preserve inoculated microorganism for a long time and thereby stimulating the skin continuously. 0.2 ml of fungus solution of which concentration is adjusted as described above, was inoculated between the skin and filter paper. 5 Days after the inoculation, the filter paper was removed and the infection of skin was examined. The test formulations, 0.5% creamy formulations of the compounds Nos. 62 and 85, 1.0% creamy formulation of Terbinafine(Lamisile cream) and a placebo was applied on the infected areas in a same amount once a day for 5 days. The clinical evaluation on the change of the infected area in 5 days after the inoculation was performed and expressed numerically from 0 to 4. The daily change of the infected area was checked every day. The result of each group was compared with each other.
1: Mild erythema or small number of skin eruption
2: Well-demarcated erythema with scales or mild skin eruption of infected area
3: Wide area of marked skin eruption, scales, swelling or severe skin eruption with partial swelling and scales
4: The same as those of control, or severe skin eruption in entire lesion
The result was calculated as follows;
T: Average score of clinical evaluation in drug treated area
K: Average score of clinical evaluation in placebo control group
Moreover, the antifungal efficacies of the 0.5% creamy formulation of the compounds Nos. 29, 35, 60, 62, 63 and 85, and 1% creamy formulation of Terbinafme (Lamisil cream), which are measured by applying the above formulations on the skin infected with Epidermophyton floccosum of mouse which is the standard animal for the test of local fungal skin infection, i.e, Specific Pathogen Free SKH/1, are described in the following Table 4.

[15] = Candida albicans, OY003, C. albicans OY 003, read-out: MIC
[16] = Candida albicans, OY019, C. albicans OY 019, read-out: MIC
[17] = Candida albicans, IFO1385, C. albicans IFO 1385, read-out: MIC
[18] = Candida albicans, ATCC28838, C. albicans ATCC 28838, read-out: MIC
[19] = Candida albicans, ATCC11651, C. albicans ATCC 11651, read-out: MIC
[20] = Candida albicans, KCTC1940, C. albicans KCTC 1940, read-out: MIC

SMILES	MIC [3, 15]	MIC [4, 16]	MIC [5, 17]	MIC [7, 18]	MIC [9, 19]	MIC [13, 20]	Efficacy (%) 0 day later [14]	Efficacy (%) 1 day later [14]	Efficacy (%) 2 day later [14]	Efficacy (%) 3 day later [14]	Efficacy (%) 4 day later [14]	Efficacy (%) 5 day later [14]	Efficacy (%) 6 day later [14]	Efficacy (%) 7 day later [14]	also measured
Clc1ccc(COC(Cn2ccnc2)c2ccc(Cl)cc2Cl)c(Cl)c1 (stereo not shown) [Miconazole, reference compound]	–	–	–	–	–	–	–	–	–	–	–	–	–	–	MIC [1]: 6.25 µg/mL (≈ 15 µM); MIC [2]: 3.12 µg/mL (≈ 7.51 µM); MIC ([3]; Candida albicans, OY003): 1.56 µg/mL (≈ 3.75 µM); MIC ([4]; Candida albicans, OY019): 1.56 µg/mL (≈ 3.75 µM); MIC ([5]; Candida albicans, IFO1385): 3.12 µg/mL (≈ 7.51 µM); MIC [6]: > 100 µg/mL; MIC ([7]; Candida albicans, ATCC28838): 0.78 µg/mL (≈ 1.87 µM); MIC [8]: 3.12 µg/mL (≈ 7.51 µM); MIC ([9]; Candida albicans, ATCC11651): 3.12 µg/mL (≈ 7.51 µM); MIC ([10]; Epidermophyton floccosum): 6.25 µg/mL (≈ 15 µM); MIC [11]: 3.12 µg/mL (≈ 7.51 µM); MIC [12]: > 100 µg/mL; MIC ([13]; Candida albicans, KCTC1940): 1.56 µg/mL (≈ 3.75 µM)
COc1ccc2c(Cc3ccc(C)c(C)c3)c3[n+](cc2c1OC)CCc1cc2c(cc1-3)OCO2 [compound 18, 13-(3,4-dimethylbenzyl)berberine chloride]	6.25 µg/mL	6.25 µg/mL	12.5 µg/mL	3.12 µg/mL	3.12 µg/mL	6.25 µg/mL	–	–	–	–	–	–	–	–	–
COc1ccc2c(Cc3ccc(OC(F)(F)F)cc3)c3[n+](cc2c1OC)CCc1cc2c(cc1-3)OCO2 [compound 31, 13-(4-trifluoromethoxybenzyl) berberine chloride]	1.56 µg/mL	1.56 µg/mL	3.12 µg/mL	0.78 µg/mL	1.56 µg/mL	1.56 µg/mL	–	–	–	–	–	–	–	–	–
COc1cc(Cc2c3[n+](cc4c(OC)c(OC)ccc24)CCc2cc4c(cc2-3)OCO4)cc(OC)c1OC [compound 29, 13-(3,4,5-trimethoxybenzyl)berberine chloride]	6.25 µg/mL	6.25 µg/mL	25 µg/mL	3.12 µg/mL	1.56 µg/mL	1.56 µg/mL	0%	30.0%	33.4%	34.6%	48.0%	56.4%	63.0%	65.8%	–
COc1ccc2c(Cc3ccc(C(C)(C)C)cc3)c3[n+](c(O)c2c1OC)CCc1cc2c(cc1-3)OCO2.[Cl-] [compound 64, 8-hydroxy-13-(4-t-butylbenzyl) berberine chloride]	–	–	–	–	–	–	–	–	–	–	–	–	–	–	MIC ([3]; C. albicans OY 003): 6.25 µg/mL; MIC ([4]; C. albicans OY 019): 0.4 µg/mL; MIC ([5]; C. albicans IFO 1385): 25 µg/mL; MIC ([7]; C. albicans ATCC 28838): 3.125 µg/mL; MIC ([9]; C. albicans ATCC 11651): 3.125 µg/mL; MIC ([10]; E. floccosum): > 100 µg/mL; MIC ([13]; C. albicans KCTC 1940): 12.5 µg/mL
COc1ccc2c(Cc3ccc(-c4ccccc4)cc3)c3[n+](cc2c1OC)CCc1cc2c(cc1-3)OCO2 [compound 35, 13-(4-phenylbenzyl)berberine chloride]	0.78 µg/mL	1.56 µg/mL	6.25 µg/mL	1.56 µg/mL	0.78 µg/mL	0.78 µg/mL	0%	36.0%	57.9%	68.4%	72.2%	74.0%	75.4%	76.8%	MIC ([1]; C. albicans ATCC 10231, read-out: MIC): 6.25 µg/mL; MIC ([2]; C. glulliermendi, read-out: MIC): 12.5 µg/mL; MIC ([6]; C. glabrata, read-out: MIC): > 100 µg/mL; MIC ([8]; C. krusei, read-out: MIC): 3.12 µg/mL; MIC ([10]; Epidermophyton floccosum, E. floccosum, read-out: MIC): 12.5 µg/mL; MIC ([11]; C. parapsilosis, read-out: MIC): > 100 µg/mL; MIC ([12]; C. albicans U.K., read-out: MIC): 12.5 µg/mL

— US6008356A, “Pharmaceutically available protoberberine salts derivatives, and protoberberine salts derivatives, and protoberberine derivatives and salts thereof” (priority 1998, dated 1999)
